Data on two compounds can be found in patent publication US10231952B2, “Use of arginine vasopressin receptor antagonists for the treatment of prostate cancer” (UNIVERSITY OF MIAMI, priority 2014, dated 2019).

One series relates to cleaved PARP. Kind of series: Immunoblot for cleaved PARP after Relcovaptan treatment. In kind it is cell-based, human. The protocol: (§1) FIGS. 7A-7I. Pharmacologic blockade of AVPR1a decreases human prostate cancer cell but not normal prostate epithelial cell proliferation and selectively kills human prostate cancer cells. (A) 22Rv1, (B) CWR-R1, (C) PC3, and (D) RWPE-1 cells were treated with vehicle or SR49059 at the indicated concentrations and harvested five days post treatment. A representative experiment (of four) was performed in triplicate and data are plotted as cell number (thousands)±SD. Significance was determined using a Student's t-test comparing to vehicle controls (**, p<0.01; ***, p<0.001). (E) 22Rv1, (F) CWR-R1, (G) PC3 or (H) RWPE-1 cells were plated and grown as described above. Adherent and floating cells were harvested and cells that stained with trypan blue or that excluded stain were counted. A representative experiment (of four) was performed in triplicate. Significance was determined using a Student's t-test comparing to vehicle controls (**, p<0.01; ***, p<0.001). (I) Lysates from cells in (A)-(D) were immunoblotted with antibodies that recognize cleaved PARP and actin.
In general terms: A western blot detects proteins with antibodies after separation by electrophoresis.

A further series relates to VCaP xenografts. Put plainly: Castration resistant VCaP xenografts in SCID mice, oral Relcovaptan. Type of series: in vivo. To be noted: 50 mg/kg daily oral gavage, 14 days. How it is done:
Subcutaneous VCaP xenografts (bilateral) were established in SCID mice. Mice were castrated when tumors reached 250-300 mm^3. […] Circulating prostate specific antigen (PSA) was measured by ELISA in mice prior to tumor xenografting (baseline), at the time of castration (pre-treatment) and at the time of sacrifice (post-treatment).

For series [1], the system named is CWR-R1 cells. Put plainly: SR49059 treatment, cell number and trypan blue cell death, CWR-R1. Type of series: cell-based, human. Particulars: low nanomolar concentrations, five days. How it is done: as §1
The next series has as its system ERK1/2 phosphorylation. Put plainly: Phospho-ERK1/2 immunoblot, AVP plus/minus Relcovaptan (FIG. 10). In kind it is cell-based, human. To be noted: 22Rv1 or CWR-R1; 1 nM AVP plus 1 nM Relcovaptan; 25 min. The text has this:
FIG. 10. […] Lysates were immunoblotted for phospho-ERK1/2 and total ERK1/2.

The test system of series [2] is 22Rv1, VCaP and RWPE1 cells. Kind of series: Relcovaptan on prostate cancer cell growth / anchorage independent growth (Example 10). In kind it is cell-based, human. The protocol:
The effect of an AVPR1a antagonist on the anchorage independent growth of a castration-resistant prostate cancer cell line (i.e., 22Rv1) was evaluated.

A further series has as its system 22Rv1 xenografts. Put plainly: Pilot 22Rv1 xenograft in castrated nude mice, Relcovaptan IP. In kind it is in vivo. To be noted: 2.5 mg/kg IP, 5 times per week. How it is done: FIG. 8. […] 22RV1 cells (2×106) resuspended in BD Matrigel were injected into both hind flanks of castrated nude mice (n=8). […] Top graph, once palpable, tumor size was measured five days per week. Significance was determined using a Student's t-test comparing to vehicle controls (* p<0.05). Lower graph, mice were weighed five days per week.

Series [3] concerns RWPE1 cells. Kind of series: SR49059 treatment, cell number and trypan blue cell death, RWPE-1 normal prostate epithelial cells. In kind it is cell-based, human. How it is done:
as §1

The test system of series [4] is 22Rv1 cells. Kind of series: SR49059 treatment, cell number and trypan blue cell death, 22Rv1. In kind it is cell-based, human. To be noted: low nanomolar concentrations, five days. The protocol: as §1
The test system of another series is ERK phosphorylation. Kind of series: Total and phosphoERK after AVP stimulation of 22Rv1 with AVPR1a antagonist pretreatment (FIG. 18). Type of series: cell-based, human. Particulars: 10 nM AVP, antagonist pretreatment. How it is done:
Total and phosphoERK levels were assessed following stimulation of 22Rv1 with 10 nM AVP for 25 minutes and pretreatment with AVPR1a antagonist (or vehicle control).

Series [5] relates to PC3 cells. Kind of series: SR49059 treatment, cell number and trypan blue cell death, PC3. In kind it is cell-based, human. To be noted: low nanomolar concentrations, five days. How it is done:
as §1

The test system of a further series is LNCaP cells. Kind of series: Relcovaptan treatment of androgen dependent LNCaP cells (data not shown). Type of series: cell-based, human.
For series [6], the system named is RWPE1 cells. Kind of series: shAVPR1a depletion, growth curves and trypan blue cell death, RWPE1. In kind it is cell-based, human. To be noted: RWPE1 stably expressing shAVPR1a vs shGFP. The text has this:
(§2) FIGS. 3A-3D. Depletion of AVPR1a decreases aggressive prostate cancer cell proliferation. […] Live cells (trypan blue exclusion) were counted at the indicated times (hr). Significant differences (p<0.05) in proliferation between shGFP and shAVPR1a-transduced cells occurred by 48-72 hr in CRPC (A-C) but not in normal prostate epithelial cells, RWPE-1 (D). Lower panels quantify AVPR1a mRNA depletion by shRNA in each cell line.
(§3) FIGS. 4A-4E. Depletion of AVPR1a promotes death of aggressive prostate cancer cells. (A) 22Rv1, (B) CWR-R1, (C) PC3 or (D) RWPE-1 cells stably expressing either plk0.1-shGFP or -shAVPR1a were plated and grown as in FIG. 3. Adherent and floating cells were harvested and cells that stained with trypan blue or that excluded stain were counted. Data represent three independent experiments performed in triplicate. Significance was determined using a Student's t-test comparing to shGFP controls (***, p<0.001). (E) Cell lysates were immunoblotted with antibodies that recognize cleaved PARP, cyclin A, and actin.

For series [7], the system named is PC3 cells. Kind of series: shAVPR1a depletion, growth curves and trypan blue cell death, PC3. In kind it is cell-based, human. To be noted: PC3 stably expressing shAVPR1a vs shGFP.
Source text: as §2, §3

The test system of series [8] is cleaved PARP, Cyclin A, p-RB. Kind of series: Immunoblot of apoptosis and G1/S cell-cycle markers after AVPR1a depletion. Type of series: cell-based, human. How it is done:
as §3
(§4) This finding is significant as AR splice variants are a proposed mechanism of resistance to drugs that target full length AR including the newer agents, abiraterone and enzalutamide (6,7). Thus, targeting AVPR1a may be a strategy to overcome therapeutic resistance to these next generation drugs.
Next, Western-blot analysis was performed in PC3, 22Rv1 and LNCaP Abl (CRPC) and RWPE1 (non-tumorigenic prostate epithelial cells) to examine G1/S cell-cycle markers: Cyclin A, p-RB or P27.

For series [9], the system named is 22Rv1, CWR-R1 or PC3 cells. Kind of series: Soft agar anchorage independent growth after AVPR1a depletion. In kind it is cell-based, human. The protocol: FIG. 6. AVPR1a is necessary for anchorage independent growth of human prostate cancer cells. The growth in soft agar of 22Rv1, CWR-R1 or PC3 cells stably expressing the indicated shRNA vectors was assessed. Average colony number per plate±SEM is plotted. Data represent two independent experiments performed in triplicate. Significance was determined using a Student's t-test comparing to shGFP controls (***, p<0.001).
as §4
Next, PC3 and 22RV1 cells (CRPC cell lines) in which AVPR1a was depleted (or control shGFP) were cultured in soft agar for three weeks to assess anchorage independent growth (anoikis resistance).

For series [10], the system named is CWR-R1 cells. Kind of series: shAVPR1a depletion, growth curves and trypan blue cell death, CWR-R1. In kind it is cell-based, human. Particulars: CWR-R1 stably expressing shAVPR1a vs shGFP.
Source text: as §2, §3

Series [11] has as its system full length AR and AR splice variants. Kind of series: Immunoblot of AR after AVPR1a depletion in 22Rv1. Type of series: cell-based, human.
Source text: FIG. 5. AVPR1a knock down results in down-regulation of androgen receptor (AR) and AR splice variant expression in human prostate cancer cells. […] ARdeltaLBD refers to C-terminally truncated AR splice variants such as AR3.
as §4

For series [12], the system named is androgen dependent cells, LNCaP, VCaP and non-tumorigenic prostate epithelial RWPE1 cells. Put plainly: shAVPR1a depletion, live cell counting, androgen dependent and normal cells (Example 8). In kind it is cell-based, human. The text has this:
(§5) (● shGFP served as a control, SEQ ID NO: 5-[…] A summary of the human prostate cell lines used is provided below in Table 1:
(§6) Data represent three independent experiments performed in triplicate for all cell lines except C4-2, which was done one time in triplicate. […] A second distinct AVPR1a shRNA produced similar results (data not shown).

Series [13] concerns CRPC cells (PC3, 22RV1, LNCaP-abl, C4-2, CWR-R1). Put plainly: shAVPR1a depletion, live cell counting, CRPC cells (Example 8). Type of series: cell-based, human.
Source text: as §5, §6

In series [14] the test system is 22Rv1 cells. Put plainly: shAVPR1a depletion, growth curves and trypan blue cell death, 22Rv1. In kind it is cell-based, human. Particulars: 22Rv1 stably expressing shAVPR1a vs shGFP.
Source text: as §2, §3

Entries after “also recorded” stand apart in the source; their conditions may differ.

For `COc1ccc(S(=O)(=O)N2c3ccc(Cl)cc3[C@](O)(c3ccccc3Cl)[C@@H]2C(=O)N2CCC[C@H]2C(N)=O)cc1OC` [Relcovaptan], the “cleavage of PARP” value with cleaved PARP (PC cells) was “cleavage of PARP”; in the series on cleaved PARP (normal prostate cells), “not normal prostate cells”. The “body weight vs controls” value in the series with VCaP xenografts is given as “no loss of weight”. Besides, in the series with VCaP xenografts (started seven days after castration), the “growth of castration resistant VCaP xenografts” value is reported as “significantly slowed the growth; also recorded: slows growth of VCaP tumors”. The “circulating PSA levels” value in the series on VCaP xenografts (ELISA) is listed as “stabilization of PSA levels”. In addition, the cell death entry is reported as “promoted CRPC cell death” in the series with CWR-R1 cells [1]; “did not promote RWPE1 cell death” in the series with RWPE1 cells [3] (doses as high as 10 μM, data not shown); “promoted CRPC cell death” with 22Rv1 cells [4]; “promotes cell death; also recorded: promoted CRPC cell death” in the series with PC3 cells [5]; “approx. 20%” in the series on LNCaP cells. For the same compound, the proliferation entry in the series on CWR-R1 cells [1], with 22Rv1 cells [4] and with PC3 cells [5] was “inhibited proliferation” throughout. In the series on ERK1/2 phosphorylation, the “inhibition of AVP-stimulated ERK phosphorylation” value is reported as “inhibited this phosphorylation of ERK”. In series [2] (10 μM or 25 μM, six days, FIG. 17), the anchorage independent growth result is “inhibits prostate cancer cell anchorage independent growth”. Besides, the “prostate cancer cell proliferation” value in series [2] (FIG. 16) was “inhibits prostate cancer cell proliferation”. Besides, the “adverse effects / toxicity” value in the series on 22Rv1 xenografts is “no adverse effects; also recorded: lack of toxicity”. Also, the tumor growth entry in the series with 22Rv1 xenografts (castrated nude mice) is on record as “significantly decreased tumor growth at early time points; also recorded: decreases CRPC in vivo growth at early time points”. The cell proliferation entry in the series with RWPE1 cells [3] (1-10 nM) is “no effect”. Also, in the series on RWPE1 cells [3] (1-10 nM), the cell survival result was “no effect”. In addition, the “block of AVP-stimulated phosphoERK” value is recorded as “blocks ERK signaling” in the series with ERK phosphorylation and “blocked” with ERK phosphorylation (listed as relcovaptan). The growth entry in the series with LNCaP cells is given as “inhibited growth inhibition”.
As to “shAVPR1a: selective shRNA to AVPR1a, SEQ ID NO: 2 (hairpin printed as SEQ ID NO: 4 in b155) (GGTATGTGGAAGGACTCGCCTAAATCTTC)”, the cell death entry in the series with RWPE1 cells [6] is listed as “not the normal human prostate epithelial RWPE1 cells”; in the series with PC3 cells [7] it was “increased cell death”; in the series with CWR-R1 cells [10], “increased cell death”; in the series with 22Rv1 cells [14], “increased cell death”. The cell proliferation result in the series with PC3 cells [7], with CWR-R1 cells [10] and in the series with 22Rv1 cells [14] was “decreased cell proliferation” each time. Besides, the PARP cleavage entry was “observed” in series [8] (AVPR1a-depleted PC cells) and “not in RWPE1 cells” in series [8] (RWPE1 cells). Also, the “cyclin A” value in [8] (CRPC lines PC3, 22Rv1, LNCaP Abl, Example 8) was “decreased cyclin A”. Moreover, the “phosphorylation of the retinoblastoma protein” value is recorded as “decreased phosphorylation of the retinoblastoma protein” in series [8] (PC3 and 22Rv1, Example 8); “not RWPE1 cells” in [8] (RWPE1, Example 8). For the same compound, in series [8] (PC cells, Example 1), the “Cyclin A levels (G1 to S progression)” value was “decreased levels of Cyclin A”. In addition, the anchorage independent growth entry in [9] (PC3 and 22RV1, soft agar, three weeks, Example 8) is “significantly reduced anchorage independent growth”. The “anchorage independent growth in soft agar” value in [9] (three PC cell lines (22Rv1, CWR-R1, PC3)) is listed as “inhibition of anchorage independent growth in soft agar”. The “levels of full length AR and AR splice variants” value in series [11] was “decreased levels of full length AR and AR splice variants”. The “androgen dependent and normal prostate epithelial cell proliferation” value in series [12] was “less effect”. The “proliferation of CRPC cells” value in series [13] is reported as “greatly decreased proliferation”.
